Laboratory results reported in patent publication US8785489B2, “Heteroaryl substituted indole compounds useful as MMP-13 inhibitors” (Boehringer Ingelheim International GmbH, priority 2008, dated 2014).

Target: MMP13 (Homo sapiens (Human), UniProt P45452)
Experiment: EnzoLyte 520 Generic MMP Assay Kit, 5-FAM/QXL 520 FRET peptide substrate
Format: biochemical
Source text: The EnzoLyte™ 520 Generic MMP Assay Kit (AnaSpec Inc.) can detect the activity of several MMPs including MMP-1, 2, 3, 7, 8, 9, 13, and 14. This kit uses a 5-FAM/QXL™ 520 fluorescence resonance energy transfer (FRET) peptide as an MMP substrate. In the intact FRET peptide, the fluorescence of 5-FAM is quenched by QXL™ 520. Upon cleavage into two separate fragments by MMPs, the fluorescence of 5-FAM is recovered, and can be monitored at excitation/emission wavelengths=490 nm/520 nm. The assays are performed in a convenient 96-well or 384-well microplate format.

Row | IC50 | SMILES
1 | 0.9 nM | Cc1noc(-c2cc3cc(-c4nc(C(=O)NCc5cc(C)on5)[nH]c4C)ccc3[nH]2)n1 [5-methyl-N-[(5-methylisoxazol-3-yl)methyl]-4-[2-(3-methyl-1,2,4-oxadiazol-5-yl)-1H-indol-5-yl]-1H-imidazole-2-carboxamide]
2 | 10 nM | Cc1noc(-c2cc3cc(-c4cc(C(=O)NCc5cncs5)nn4C)ccc3[nH]2)n1 [1-methyl-5-[2-(3-methyl-1,2,4-oxadiazol-5-yl)-1H-indol-5-yl]-N-(1,3-thiazol-5-ylmethyl)-1H-pyrazole-3-carboxamide]
3 | 2 nM | Cc1noc(-c2cc3cc(-c4nc(C(=O)NCc5ccc(C#N)cc5)[nH]c4C)ccc3[nH]2)n1
4 | 125 nM | CCOC(=O)c1cc2cc(-c3cc(C(=O)NCc4ccc(=O)[nH]c4)nn3C)ccc2[nH]1
5 | 49 nM | CCOC(=O)c1cc2cc(-c3nc(C(=O)NCc4ccncc4)[nH]c3C)cnc2[nH]1
6 | 5 nM | Cn1nc(C(=O)NCc2ccc(C(=O)O)cc2)cc1-c1ccc2[nH]c(-c3cncnc3)cc2c1
7 | 1.2 nM | Cc1noc(-c2cc3cc(-c4nc(C(=O)NCc5ccnnc5)[nH]c4C)ccc3[nH]2)n1
8 | 6 nM | Cc1[nH]c(C(=O)NCc2ccncc2)nc1-c1ccc2[nH]c(-c3nc(C4CC4)no3)cc2c1
9 | 2 nM | Cc1noc(-c2cc3cc(-c4nc(C(=O)NCc5ccc(N)nc5)[nH]c4C)ccc3[nH]2)n1
10 | 0.2 nM | Cc1noc(-c2cc3cc(-c4ccnc(C(=O)NCc5ccc(C(=O)O)cc5)c4)ccc3[nH]2)n1
11 | 5 nM | Cc1noc(-c2cc3cc(-c4nc(C(=O)NCCN5CCOCC5)[nH]c4C)ccc3[nH]2)n1
12 | 0.6 nM | Cc1noc(-c2cc3cc(-c4nc(C(=O)NCc5cccnc5)[nH]c4C)ccc3[nH]2)n1
13 | 30 nM | Cc1cc(-c2cc3cc(-c4cc(C(=O)NCc5ccc(C(=O)O)cc5)nn4C)ccc3[nH]2)ccc1F
14 | 64 nM | Cc1noc(-c2cc3cc(-c4nc(C(=O)N5CCCCC5)[nH]c4C)ccc3[nH]2)n1
15 | 24 nM | Cc1noc(-c2cc3cc(-c4cc(C(=O)NCc5cc(C)on5)nn4C)ccc3[nH]2)n1 [1-methyl-N-[(5-methylisoxazol-3-yl)methyl]-5-[2-(3-methyl-1,2,4-oxadiazol-5-yl)-1H-indol-5-yl]-1H-pyrazole-3-carboxamide]
16 | 0.7 nM | Cc1noc(-c2cc3cc(-c4nc(C(=O)NCc5ccno5)[nH]c4C)ccc3[nH]2)n1 [N-(isoxazol-5-ylmethyl)-5-methyl-4-[2-(3-methyl-1,2,4-oxadiazol-5-yl)-1H-indol-5-yl]-1H-imidazole-2-carboxamide]

Row | IC50 | SMILES
17 | 52 nM | Cn1nc(C(=O)NCc2ccc(C(=O)O)cc2)cc1-c1ccc2[nH]c(C#N)cc2c1
18 | 45 nM | Cc1noc(-c2cc3cc(-c4cc(C(=O)NCc5ccoc5)nn4C)ccc3[nH]2)n1
19 | 0.6 nM | Cc1noc(-c2cc3cc(-c4nc(C(=O)NCc5ccncn5)[nH]c4C)ccc3[nH]2)n1
20 | 5 nM | Cc1noc(-c2cc3cc(-c4nc(C(=O)NCC5CCCCO5)[nH]c4C)ccc3[nH]2)n1 (centres unmarked)
21 | 20 nM | Cc1noc(-c2cc3nc(-c4nc(C(=O)NCc5ccncc5)[nH]c4C)ccc3[nH]2)n1
22 | 4 nM | Cc1noc(-c2cc3cc(-c4cc(C(=O)NCc5ccnc(Cl)c5)nn4C)ccc3[nH]2)n1 [N-[(2-chloropyridin-4-yl)methyl]-1-methyl-5-[2-(3-methyl-1,2,4-oxadiazol-5-yl)-1H-indol-5-yl]-1H-pyrazole-3-carboxamide]
23 | 26 nM | Cc1noc(-c2cc3cc(-c4nc(C(=O)NC5CC5)[nH]c4C)ccc3[nH]2)n1 [N-cyclopropyl-5-methyl-4-[2-(3-methyl-1,2,4-oxadiazol-5-yl)-1H-indol-5-yl]-1H-imidazole-2-carboxamide]
24 | 26 nM | Cc1noc(-c2cc3cc(-c4cc(C(=O)NCc5ccccc5)nn4C)ccc3[nH]2)n1 [N-benzyl-1-methyl-5-[2-(3-methyl-1,2,4-oxadiazol-5-yl)-1H-indol-5-yl]-1H-pyrazole-3-carboxamide]
25 | 7 nM | CCOC(=O)c1[nH]c2ccc(-c3nc(C(=O)NCc4ccncc4)[nH]c3C)cc2c1F
26 | 1.3 nM | Cc1noc(-c2cc3cc(-c4nc(C(=O)NCc5ccnc(N)c5)[nH]c4C)ccc3[nH]2)n1
27 | 8 nM | Cc1noc(-c2cc3cc(-c4nc(C(=O)NCC5CC5)[nH]c4C)ccc3[nH]2)n1 [N-(cyclopropylmethyl)-5-methyl-4-[2-(3-methyl-1,2,4-oxadiazol-5-yl)-1H-indol-5-yl]-1H-imidazole-2-carboxamide]
28 | 5 nM | Cc1noc(-c2cc3cc(-c4nc(C(=O)NC[C@H]5CCCO5)[nH]c4C)ccc3[nH]2)n1 [5-methyl-4-[2-(3-methyl-1,2,4-oxadiazol-5-yl)-1H-indol-5-yl]-N-[(2R)-tetrahydrofuran-2-ylmethyl]-1H-imidazole-2-carboxamide]
29 | 10 nM | Cc1noc(-c2cc3cc(-c4cc(C(=O)NCc5ccc(C#N)cc5)nn4C)ccc3[nH]2)n1
30 | 4 nM | Cc1noc(-c2cc3cc(-c4nc(C(=O)NC[C@@H]5CCCO5)[nH]c4C)ccc3[nH]2)n1 [5-methyl-4-[2-(3-methyl-1,2,4-oxadiazol-5-yl)-1H-indol-5-yl]-N-[(2S)-tetrahydrofuran-2-ylmethyl]-1H-imidazole-2-carboxamide]
31 | 39 nM | CCOC(=O)c1cc2cc(-c3nc(C(=O)OCC)[nH]c3C)ccc2[nH]1 [5-(2-Ethoxycarbonyl-5-methyl-1H-imidazol-4-yl)-1H-indole-2-carboxylic acid ethyl ester]

Row | SMILES | IC50
32 | CCOC(=O)c1cc2cc(-c3cc(C(=O)NCc4ccncc4)ncc3C)ccc2[nH]1 | 155 nM
